According to ChEMBL document CHEMBL1201862, “PubChem BioAssay data set” (2004):
Activity calls are given as the source filed them.

Tests used:
CHO-K1 = experiment: (§1) Counterscreen for antagonists of the orexin 1 receptor (OX1R; HCRTR1): Homogeneous time resolved fluorescence (HTRF)-based cell-based dose response assay to identify antagonists of the parental CHO-K1 cell line. [Related pubchem assays (depositor defined):AID434989, AID435008, AID463079, AID485270, AID492963, AID492964, AID492965, AID493232, AID504699, AID504701]; type: functional; details: Cricetulus griseus
[1] = target: T1, Orexin/Hypocretin receptor type 1 (Homo sapiens, UniProt O43613); experiment: Homogeneous Time Resolved Fluorescence (HTRF)-based cell-based high throughput dose response assay for antagonists of the orexin 1 receptor (OX1R; HCRTR1). [Related pubchem assays (depositor defined):AID434989, AID435008, AID463079, AID485270, AID492963, AID492964, AID492965, AID493232, AID504717, AID504718]; type: functional
T1 sequence (O43613 whole entry): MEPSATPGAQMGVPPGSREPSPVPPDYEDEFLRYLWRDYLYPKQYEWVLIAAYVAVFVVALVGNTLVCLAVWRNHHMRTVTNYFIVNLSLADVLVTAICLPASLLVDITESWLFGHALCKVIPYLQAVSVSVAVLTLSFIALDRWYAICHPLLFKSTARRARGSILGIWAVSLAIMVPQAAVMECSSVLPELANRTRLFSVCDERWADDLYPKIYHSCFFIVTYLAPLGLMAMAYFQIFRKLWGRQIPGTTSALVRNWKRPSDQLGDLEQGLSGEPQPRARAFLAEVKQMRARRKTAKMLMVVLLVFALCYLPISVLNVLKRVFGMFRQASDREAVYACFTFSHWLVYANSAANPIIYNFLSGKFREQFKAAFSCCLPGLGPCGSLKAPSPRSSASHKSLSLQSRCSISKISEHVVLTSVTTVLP

[2] = as §1, with “Fluorescence-based” for “Homogeneous time resolved fluorescence (HTRF)-based”, “cell-based high throughput” for “cell-based”, “CHO” for “CHO-K1”; type: functional
[3] = target: T1, Orexin/Hypocretin receptor type 1; experiment: Fluorescence-based cell-based high throughput dose response assay for antagonists of the orexin 1 receptor (OX1R; HCRTR1). [Related pubchem assays (depositor defined):AID434989, AID435008, AID463079, AID485270, AID492963, AID492964, AID492965, AID493232, AID504717, AID504718]; type: functional
[4] = target: T2, Heat shock factor protein 1 (Mus musculus, UniProt P38532); experiment: enhancement of HSF1-driven luciferase signal – cell-based, NIH3T3, luminescence, dose retest, confirmation (AID 435004); type: functional;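 further: stress induced by proteasome inhibitor MG132 added 30 min after compound; luciferase reporter driven by HSF1 response element in NIH3T3 cells; actives raise luminescence as potentiators of the MG132 stress response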
T2 sequence (P38532 whole entry): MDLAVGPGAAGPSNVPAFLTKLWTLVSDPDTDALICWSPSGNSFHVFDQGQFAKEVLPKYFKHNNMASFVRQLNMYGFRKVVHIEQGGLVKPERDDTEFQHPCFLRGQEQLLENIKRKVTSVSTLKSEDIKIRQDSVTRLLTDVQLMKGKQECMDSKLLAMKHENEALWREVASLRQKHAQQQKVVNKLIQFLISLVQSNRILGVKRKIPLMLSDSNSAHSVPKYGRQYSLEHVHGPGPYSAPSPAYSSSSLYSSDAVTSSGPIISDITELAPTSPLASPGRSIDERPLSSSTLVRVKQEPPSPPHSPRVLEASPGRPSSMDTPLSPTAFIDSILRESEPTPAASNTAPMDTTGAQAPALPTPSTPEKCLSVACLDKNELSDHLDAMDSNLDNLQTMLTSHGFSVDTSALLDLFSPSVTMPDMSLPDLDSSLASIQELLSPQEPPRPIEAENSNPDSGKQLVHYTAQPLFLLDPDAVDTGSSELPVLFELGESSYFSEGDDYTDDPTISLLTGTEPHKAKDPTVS

[5] = Counterscreen for AddAB inhibitors: absorbance-based bacterial cell-based high throughput dose response assay for inhibitors of bacterial viability. [Related pubchem assays (depositor defined):AID435030, AID449728, AID449731, AID488942, AID488955, AID488956]; type: functional
Exodeoxyribonuclease V = target: T3, Exodeoxyribonuclease V (Escherichia coli (strain K12), UniProt P04993+P07648+P08394); experiment: RecBCD inhibition via phage-restricted bacterial growth – absorbance, V66 E. coli, mutant T4 phage, counter-screen for AddAB inhibitor project, dose response (AID 492957); type: functional, cell-based, Escherichia coli str. K-12 substr. MG1655
T3 sequence (P04993 whole entry): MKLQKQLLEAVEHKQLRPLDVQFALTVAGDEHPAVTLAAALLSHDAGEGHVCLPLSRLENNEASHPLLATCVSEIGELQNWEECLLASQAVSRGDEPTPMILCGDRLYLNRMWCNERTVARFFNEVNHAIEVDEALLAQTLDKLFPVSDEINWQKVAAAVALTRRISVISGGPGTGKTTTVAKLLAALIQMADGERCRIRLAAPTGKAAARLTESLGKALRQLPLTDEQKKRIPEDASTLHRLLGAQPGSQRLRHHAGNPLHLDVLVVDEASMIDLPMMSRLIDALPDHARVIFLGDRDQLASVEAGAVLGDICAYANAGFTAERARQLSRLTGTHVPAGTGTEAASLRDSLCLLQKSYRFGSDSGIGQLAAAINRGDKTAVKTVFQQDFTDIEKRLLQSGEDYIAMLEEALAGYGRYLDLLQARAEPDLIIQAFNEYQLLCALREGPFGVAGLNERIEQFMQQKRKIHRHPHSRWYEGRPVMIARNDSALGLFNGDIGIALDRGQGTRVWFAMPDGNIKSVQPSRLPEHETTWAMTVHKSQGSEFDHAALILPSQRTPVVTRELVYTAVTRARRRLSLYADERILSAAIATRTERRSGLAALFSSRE
T3 sequence (P07648 whole entry): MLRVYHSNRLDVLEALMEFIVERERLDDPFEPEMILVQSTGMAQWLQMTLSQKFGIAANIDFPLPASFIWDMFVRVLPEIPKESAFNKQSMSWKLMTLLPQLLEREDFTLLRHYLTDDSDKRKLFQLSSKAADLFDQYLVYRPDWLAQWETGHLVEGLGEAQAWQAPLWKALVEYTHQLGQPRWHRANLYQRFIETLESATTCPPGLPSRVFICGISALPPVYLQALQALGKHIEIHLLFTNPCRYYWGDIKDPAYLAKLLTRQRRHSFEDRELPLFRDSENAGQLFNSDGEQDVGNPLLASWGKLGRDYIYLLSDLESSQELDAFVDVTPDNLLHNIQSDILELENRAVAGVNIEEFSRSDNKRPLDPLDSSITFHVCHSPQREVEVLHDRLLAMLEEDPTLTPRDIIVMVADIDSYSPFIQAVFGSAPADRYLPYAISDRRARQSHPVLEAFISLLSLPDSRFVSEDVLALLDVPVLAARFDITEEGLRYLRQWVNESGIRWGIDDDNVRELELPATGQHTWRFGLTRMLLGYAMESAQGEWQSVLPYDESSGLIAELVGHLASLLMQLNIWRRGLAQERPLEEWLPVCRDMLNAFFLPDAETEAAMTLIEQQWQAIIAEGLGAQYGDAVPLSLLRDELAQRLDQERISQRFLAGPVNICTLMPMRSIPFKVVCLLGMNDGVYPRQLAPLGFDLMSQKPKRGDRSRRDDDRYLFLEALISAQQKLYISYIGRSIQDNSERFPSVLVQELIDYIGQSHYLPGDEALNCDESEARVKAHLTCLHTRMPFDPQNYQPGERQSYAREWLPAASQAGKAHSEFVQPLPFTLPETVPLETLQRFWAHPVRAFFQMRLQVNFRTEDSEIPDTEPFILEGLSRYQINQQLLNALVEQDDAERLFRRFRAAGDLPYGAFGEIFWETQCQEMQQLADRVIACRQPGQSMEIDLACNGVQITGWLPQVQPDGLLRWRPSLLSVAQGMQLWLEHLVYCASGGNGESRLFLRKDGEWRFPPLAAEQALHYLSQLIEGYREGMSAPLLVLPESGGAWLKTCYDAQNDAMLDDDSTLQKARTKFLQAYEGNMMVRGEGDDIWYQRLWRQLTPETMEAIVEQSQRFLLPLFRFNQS
T3 sequence (P08394 whole entry): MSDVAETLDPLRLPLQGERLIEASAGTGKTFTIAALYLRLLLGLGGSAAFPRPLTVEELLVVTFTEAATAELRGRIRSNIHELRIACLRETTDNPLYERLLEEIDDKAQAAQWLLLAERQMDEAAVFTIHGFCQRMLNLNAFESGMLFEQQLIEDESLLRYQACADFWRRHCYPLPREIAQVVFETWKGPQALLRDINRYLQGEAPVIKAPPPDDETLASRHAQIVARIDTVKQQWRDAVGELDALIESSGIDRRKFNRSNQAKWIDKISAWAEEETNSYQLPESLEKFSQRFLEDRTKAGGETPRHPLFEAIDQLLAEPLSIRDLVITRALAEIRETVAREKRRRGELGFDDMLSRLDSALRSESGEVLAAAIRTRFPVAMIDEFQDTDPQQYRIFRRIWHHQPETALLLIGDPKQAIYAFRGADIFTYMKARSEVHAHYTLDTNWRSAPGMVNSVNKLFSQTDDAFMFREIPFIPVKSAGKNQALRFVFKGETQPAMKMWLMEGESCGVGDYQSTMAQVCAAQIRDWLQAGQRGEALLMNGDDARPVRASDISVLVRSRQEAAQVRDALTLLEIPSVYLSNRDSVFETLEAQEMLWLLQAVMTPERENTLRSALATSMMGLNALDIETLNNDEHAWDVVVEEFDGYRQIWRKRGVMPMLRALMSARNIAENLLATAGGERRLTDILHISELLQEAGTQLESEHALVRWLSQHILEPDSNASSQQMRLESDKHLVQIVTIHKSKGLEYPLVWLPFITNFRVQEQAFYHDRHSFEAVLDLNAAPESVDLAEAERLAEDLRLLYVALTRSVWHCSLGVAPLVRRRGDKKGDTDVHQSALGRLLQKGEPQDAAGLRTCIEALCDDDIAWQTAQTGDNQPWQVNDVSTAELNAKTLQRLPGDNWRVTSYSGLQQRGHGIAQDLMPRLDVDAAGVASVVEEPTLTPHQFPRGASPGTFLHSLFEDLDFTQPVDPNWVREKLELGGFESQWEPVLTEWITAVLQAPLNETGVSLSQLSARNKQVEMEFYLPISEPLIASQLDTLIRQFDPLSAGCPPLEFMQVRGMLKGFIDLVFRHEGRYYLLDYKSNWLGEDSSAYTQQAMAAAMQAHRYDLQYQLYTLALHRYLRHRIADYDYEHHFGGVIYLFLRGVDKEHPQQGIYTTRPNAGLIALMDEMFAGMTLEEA

OC(CN1c2ccccc2Sc2ccccc21)Cn1nnc2ccccc21 (configuration not stated)
inactive: IC50 (CHO-K1) > 66.2 µM | IC50 [1] 13.3 µM | IC50 [2] 21.3 µM | IC50 [3] 16.4 µM | EC50 [4] > 260 µM

CCOc1cccc(/C=N/NC(=O)c2cc(-c3cccn3C)[nH]n2)c1O
inactive: IC50 [5] > 119 µM | IC50 (Exodeoxyribonuclease V) > 119 µM
